Laboratory results published in the supplement of paper PMC10307832.

What was measured:
Assay in all cases: relative viability (nuclei count vs DMSO), 5 days (fraction); higher = more cells survive
Bosutinib + Palbociclib = compound: COc1cc(Nc2c(C#N)cnc3cc(OCCCN4CCN(C)CC4)c(OC)cc23)c(Cl)cc1Cl [Bosutinib] + CC(=O)c1c(C)c2cnc(Nc3ccc(N4CCNCC4)cn3)nc2n(C2CCCC2)c1=O [Palbociclib] (partner 0.5 µM)
Procedure, shortened: (§1)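 Lung cancer cell lines in 1536-well plates were dosed by pin tool the day after seeding, either with one drug alone or with a fixed anchor-drug dose plus five library-drug doses (not always all listed) in √10 steps. After 5 days, cells were fixed and their nuclei stained in one step (final 0.05% Triton X-100, 1% formaldehyde, 1 ug/ml Hoechst), then counted on 4× images. Relative viability is the nuclei count in treated wells divided by that in vehicle wells. Values are medians of duplicate plates.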

Bosutinib + Bortezomib = compound: COc1cc(Nc2c(C#N)cnc3cc(OCCCN4CCN(C)CC4)c(OC)cc23)c(Cl)cc1Cl [Bosutinib] + CC(C)C[C@H](NC(=O)[C@H](Cc1ccccc1)NC(=O)c1cnccn1)B(O)O [Bortezomib] (partner 0.002 µM)
Procedure, shortened: as §1

Bosutinib + Foretinib = compound: COc1cc(Nc2c(C#N)cnc3cc(OCCCN4CCN(C)CC4)c(OC)cc23)c(Cl)cc1Cl [Bosutinib] + COc1cc2c(Oc3ccc(NC(=O)C4(C(=O)Nc5ccc(F)cc5)CC4)cc3F)ccnc2cc1OCCCN1CCOCC1 [Foretinib] (partner 0.25 µM)
Procedure, shortened: as §1

Bosutinib + Pemetrexed = compound: COc1cc(Nc2c(C#N)cnc3cc(OCCCN4CCN(C)CC4)c(OC)cc23)c(Cl)cc1Cl [Bosutinib] + Nc1nc2[nH]cc(CCc3ccc(C(=O)N[C@@H](CCC(=O)O)C(=O)O)cc3)c2c(=O)[nH]1 [Pemetrexed] (partner 0.2 µM)
Procedure, shortened: as §1

Bosutinib + Decitabine = compound: COc1cc(Nc2c(C#N)cnc3cc(OCCCN4CCN(C)CC4)c(OC)cc23)c(Cl)cc1Cl [Bosutinib] + Nc1ncn([C@H]2C[C@H](O)[C@@H](CO)O2)c(=O)n1 [Decitabine] (partner 2 µM)
Procedure, shortened: as §1

Cell Line | relative viability (Bosutinib + Palbociclib; first compound 0.01 µM) | relative viability (Bosutinib + Palbociclib; first compound 0.03162 µM) | relative viability (Bosutinib + Palbociclib; first compound 0.1 µM) | relative viability (Bosutinib + Palbociclib; first compound 1 µM) | relative viability (Bosutinib + Bortezomib; first compound 0.01 µM) | relative viability (Bosutinib + Bortezomib; first compound 0.03162 µM) | relative viability (Bosutinib + Bortezomib; first compound 0.1 µM) | relative viability (Bosutinib + Bortezomib; first compound 1 µM) | relative viability (Bosutinib + Foretinib; first compound 0.01 µM) | relative viability (Bosutinib + Foretinib; first compound 0.03162 µM) | relative viability (Bosutinib + Foretinib; first compound 0.1 µM) | relative viability (Bosutinib + Foretinib; first compound 1 µM) | relative viability (Bosutinib + Pemetrexed; first compound 0.01 µM) | relative viability (Bosutinib + Pemetrexed; first compound 0.03162 µM) | relative viability (Bosutinib + Pemetrexed; first compound 0.1 µM) | relative viability (Bosutinib + Pemetrexed; first compound 1 µM) | relative viability (Bosutinib + Decitabine; first compound 0.01 µM) | relative viability (Bosutinib + Decitabine; first compound 0.03162 µM) | relative viability (Bosutinib + Decitabine; first compound 0.1 µM) | relative viability (Bosutinib + Decitabine; first compound 1 µM)
201T | 0.355 | 0.345 | 0.35 | 0.338 | 1.16 | 1.05 | 1.14 | 1.05 | 1.08 | 1.06 | 0.991 | 0.548 | 0.283 | 0.302 | 0.324 | 0.369 | 0.892 | 0.874 | 0.848 | 0.821
A549 | – | – | – | – | – | – | – | – | 0.946 | 1 | 0.92 | 0.908 | – | – | – | – | 0.279 | 0.226 | 0.237 | 0.261
A-427 | 0.585 | 0.496 | 0.504 | 0.523 | 0.958 | 1.04 | 1.08 | 0.958 | 1.02 | 1 | 1.14 | 0.972 | 1.01 | 1.07 | 1.02 | 1.01 | 0.596 | 0.56 | 0.617 | 0.612
ABC-1 | 0.864 | 0.72 | 0.759 | 0.612 | 0.331 | 0.338 | 0.312 | 0.33 | 0.902 | 1.17 | 1.21 | 0.895 | – | – | – | – | 1.21 | 1.22 | 0.997 | 0.807
BEN | 0.449 | 0.444 | 0.493 | 0.447 | 0.726 | 0.986 | 0.923 | 0.765 | 0.755 | 0.637 | 0.682 | 0.516 | 0.641 | 0.772 | 0.746 | 0.576 | 0.668 | 0.752 | 0.819 | 0.668
CAL-12T | 0.488 | 0.493 | 0.396 | 0.117 | 0.888 | 1.15 | 1.18 | 1.01 | 1.11 | 1.09 | 1.11 | 0.834 | 1.09 | 1.26 | 1.29 | 1.18 | – | – | – | –
COR-L23 | 0.275 | 0.366 | 0.22 | 0.322 | 1.07 | 1.03 | 1.01 | 1.01 | 1.04 | 0.938 | 0.971 | 0.967 | 0.2 | 0.205 | 0.224 | 0.218 | 0.432 | 0.421 | 0.414 | 0.454
COR-L 105 | 0.401 | 0.385 | 0.443 | 0.412 | 0.778 | 0.9 | 0.705 | 0.446 | 1.05 | 1.05 | 0.895 | 0.844 | 1.22 | 1.1 | 0.979 | 0.777 | 0.642 | 0.608 | 0.72 | 0.47
ChaGo-K-1 | 0.918 | 0.939 | 0.972 | 0.881 | 0.922 | 1.12 | 1.12 | 1.37 | 1 | 0.866 | 0.981 | 0.931 | 0.244 | 0.26 | 0.249 | 0.265 | 0.496 | 0.536 | 0.511 | 0.518
